According to patent US20230173032A1, “Treatment of Hyperuricemia” (Frederiksberg Hospital, priority 2020, published 2023):

Key:
[1] = Semaglutide case studies: treatment emergent adverse events; type: in vivo, human
Method: Two patients with chronic gout and no diabetes where treated with another type of GLP-1 analog: Semaglutide subcutaneous (sc) once weekly.
Person, gout since more than 3 years no diabetes. Received 0.25 mg weekly for 6 weeks and then 0.5 mg twice.
Person, gout since more than 4 years, no diabetes. Received 0.25 mg sc for 6 weeks and 0.5 mg sc for 4 weeks.

[2] = LOSE-IT trial (NCT02905864): serious adverse events and deaths; type: in vivo, human; settings: liraglutide 3 mg/day, 52 weeks
Method: Methods: In the LOSE-IT trial (NCT02905864), a randomised, double-blinded, placebo-controlled, parallel group, single-centre trial, 156 overweight and obese individuals with knee joint pain, were offered an initial 8-week intensive diet intervention (week −8 to 0) on Cambridge Weight Plan (800-1000 kcal/day) followed by a weight loss maintenance period in which participants were randomised to either liraglutide 3 mg/day or placebo for 52 weeks. Subjects with type 1 diabetes or type 2 diabetes with glucose-lowering drugs other than metformin were excluded from the study.

Row | Structure (SMILES) | treatment emergent adverse events, Patient 1 ([1]; 8 weeks treatment, nausea during the first 2 weeks) | treatment emergent adverse events, Patient 2 ([1]; 10 weeks treatment) | deaths [2] | participants who experienced serious adverse events [2]
1 | CC[C@H](C)[C@H](NC(=O)[C@H](Cc1ccccc1)NC(=O)[C@H](CCC(=O)O)NC(=O)[C@H](CCCCNC(=O)COCCOCCNC(=O)COCCOCCNC(=O)CC[C@H](NC(=O)CCCCCCCCCCCCCCCCC(=O)O)C(=O)O)NC(=O)[C@H](C)NC(=O)[C@H](C)NC(=O)[C@H](CCC(N)=O)NC(=O)CNC(=O)[C@H](CCC(=O)O)NC(=O)[C@H](CC(C)C)NC(=O)[C@H](Cc1ccc(O)cc1)NC(=O)[C@H](CO)NC(=O)[C@H](CO)NC(=O)[C@@H](NC(=O)[C@H](CC(=O)O)NC(=O)[C@H](CO)NC(=O)[C@@H](NC(=O)[C@H](Cc1ccccc1)NC(=O)[C@@H](NC(=O)CNC(=O)[C@H](CCC(=O)O)NC(=O)C(C)(C)NC(=O)[C@@H](N)Cc1cnc[nH]1)[C@@H](C)O)[C@@H](C)O)C(C)C)C(=O)N[C@@H](C)C(=O)N[C@@H](Cc1c[nH]c2ccccc12)C(=O)N[C@@H](CC(C)C)C(=O)N[C@H](C(=O)N[C@@H](CCCNC(=N)N)C(=O)NCC(=O)N[C@@H](CCCNC(=N)N)C(=O)NCC(=O)O)C(C)C [Semaglutide] | No treatment emergent adverse events were experienced apart from slight nausea | No treatment emergent adverse events were experienced apart from slight constipation | – | –
2 | CCCCCCCCCCCCCCCC(=O)N[C@@H](CCC(=O)NCCCC[C@H](NC(=O)[C@H](C)NC(=O)[C@H](C)NC(=O)[C@H](CCC(N)=O)NC(=O)CNC(=O)[C@H](CCC(=O)O)NC(=O)[C@H](CC(C)C)NC(=O)[C@H](Cc1ccc(O)cc1)NC(=O)[C@H](CO)NC(=O)[C@H](CO)NC(=O)[C@@H](NC(=O)[C@H](CC(=O)O)NC(=O)[C@H](CO)NC(=O)[C@@H](NC(=O)[C@H](Cc1ccccc1)NC(=O)[C@@H](NC(=O)CNC(=O)[C@H](CCC(=O)O)NC(=O)[C@H](C)NC(=O)[C@@H](N)Cc1cnc[nH]1)[C@@H](C)O)[C@@H](C)O)C(C)C)C(=O)N[C@@H](CCC(=O)O)C(=O)N[C@@H](Cc1ccccc1)C(=O)N[C@H](C(=O)N[C@@H](C)C(=O)N[C@@H](Cc1c[nH]c2ccccc12)C(=O)N[C@@H](CC(C)C)C(=O)N[C@H](C(=O)N[C@@H](CCCNC(=N)N)C(=O)NCC(=O)N[C@@H](CCCNC(=N)N)C(=O)NCC(=O)O)C(C)C)[C@@H](C)CC)C(=O)O [liraglutide, Arg34, Lys26-(N-epsilon-(gamma-L-glutamyl(N-alfa-hexadecanoyl)))-GLP-I(7-37)] | – | – | no deaths were observed | Four
